# In patent US8501816B2, “Antitussive compositions comprising memantine” (Cerecor, Inc., priority 2010, dated 2013):
# Tests used:
# [1] = test system: recombinant human histamine receptors; conditions: in vitro; cited from earlier work
# sigma receptor = conditions: cited from earlier work
# [2] = Pharmacokinetics of memantine after oral or buccal dosing in male beagle dogs (Example 2); assay type: in vivo, beagle dog; set-up: Cmax/Dose: unit not given beside the values
# Description: The pharmacokinetics of memantine were evaluated after buccal administration in male beagle dogs. Memantine was formulated in water, 3.3 mg/mL sodium hydroxide in water, or 7.5 mg/mL sodium carbonate in water. All dogs received a 0.4 mg/kg dose of memantine. Plasma levels of memantine were determined by LC-MS/MS. Pharmacokinetic parameters were determined for the memantine plasma data.
# For dosing, dogs were anesthetized with an IV injection of ketamine/diazepam, and maintained by isoflurane intubation during the buccal administration. The dosing solution was pipetted into a circular cylinder to concentrate the dosing solution on one area of the mucosa. At just prior to the 15 minute sample time point, the oral cavity was rinsed with 5 mL of water and dried with gauze Immediately after the rinse, the 15 minute sample was collected.
# NMDA receptors = conditions: cited from earlier work
# [3] = cited from earlier work
# [4] = test system: freezing behavior during cued fear conditioning; experiment: Cued fear conditioning in mice; assay type: in vivo
# Description: The effects of memantine on enhancing cognition were investigated with fear conditioning tests on mice. Specifically, the fear conditioning test exposed mice to a conditioned stimulus (a tone) and an unconditioned stimulus (a mild electric shock). The mice learned to associate the tone with the shock as reflected by freezing. After being adequately conditioned, the mice were administered memantine or a control (vehicle alone). […] Fear Conditioning: Fear conditioning mouse chambers (7''W×7''D×12''H; Coulbourne Instruments, […] Valley, Pa.) were housed in sound attenuating chambers. A camera was mounted on the ceiling of the chamber to capture mouse behavior (FreezeFrame software, Coulbourne Instruments, […] Valley, Pa.); data were analyzed by Freezeview software (Coulbourne Instruments, […] Valley, Pa.). Fear conditioning chambers were calibrated prior to each experiment to ensure that each chamber delivers the same shock intensity. […] Pavlovian fear conditioning refers to the learning of associations between a negative reinforcer (e.g., a mild electric foot shock/s), a novel context (e.g. a context) and/or a specific, neutral, cue (e.g., tone or white noise). To assess contextual and cued (tone) learning and memory, a standardized fear conditioning task developed for the evaluation of memory in rodents was used. Protocol: […] Cue-induced Conditioning Testing: Mice were tested for cued memory 48 hours after training. The cued conditioning test was conducted in an altered context (i.e., a different test chamber). […] Statistical Analysis: Data are represented as the mean and standard error to the mean. Data were analyzed by analysis of variance (ANOVA) followed by Fisher PLSD, or unpaired t-tests, when appropriate to test a planned comparison. An effect was considered significant if p<0.05. Statistical outliers that fell above or below two standard deviations from the mean were removed from the final analysis.
# H3-receptor = conditions: hypothalamus, after 5 mg/kg twice daily for 5 days; cited from earlier work
# [5] = test system: histamine neuron activity; conditions: cited from earlier work
# bradykinin induced cough = experiment: Bradykinin induced cough in conscious guinea pigs; assay type: in vivo, guinea pig
# Description: (§1) Using a similar chamber and nebulizer system, animals were treated first with aerosolized peptidase inhibitors (captopril 0.1 μM and thiorphan 0.1 μM, 5 minutes nebulization) to reduce bradykinin degradation and enhance tussive responses evoked by bradykinin (unpublished observations). Animals were then exposed to increasing concentrations of aerosolized bradykinin (0.1-3 mg/mL), again for 5 minute periods. Coughs are counted during this and the subsequent 5 minutes. Pressure changes within the chamber are used to monitor respiratory rate (Biopac Systems Inc, Goleta, Calif.).
# [6] = cited from earlier work; remark: listed apart in the source
# native NMDA receptors = conditions: in vitro; cited from earlier work
# [7] = Pharmacokinetics of memantine with sodium hydroxide, menthol and NH4Cl in male beagle dogs (Example 3); assay type: in vivo, beagle dog; conditions: MMT 0.4 mg/kg; for Cmax/Dose: Route Oral; for AUC(0-inf) / AUC(0-t) / Cmax / Tmax / half-life: male, beagle, dog, plasma, po, 0.4 mg/kg
# Caco-2 cells = experiment: Memantine in vitro intestinal permeability (Caco-2 cells); assay type: in vitro ADME; conditions: pH 5.0 to 10.5
# [8] = Respiratory parameters during cough challenge; assay type: in vivo, guinea pig; conditions: 10 mg/kg memantine, p=0.012
# Description: as §1
# [9] = around pH 6.0; cited from earlier work
# porcine buccal mucosa = experiment: Memantine ex vivo buccal permeability; assay type: in vitro ADME
# [10] = male, beagle, dog, plasma, 0.4 mg/kg, MMT 0.4 mg/kg Buccal + 7.5 mg/ml Na2CO3
# [11] = male, beagle, dog, plasma, 0.4 mg/kg, MMT 0.4 mg/kg Buccal, Control (water)
# [12] = 3.3 mg/ml sodium hydroxide + 5 mg/ml menthol
# [13] = 3.3 mg/ml sodium hydroxide + 5 mg/ml menthol + 20 mg/kg NH4Cl
# [14] = 3.3 mg/ml sodium hydroxide + 5 mg/ml menthol + 30 mg/kg NH4Cl
smiles,measurement,setting,value
"CC12CC3CC(C)(C1)CC(N)(C3)C2 [Memantine, 3,5-dimethyltricyclo[3.3.1.1^3,7]decan-1-amine]",effect at receptors,[1],no effect
same,interaction with receptor,sigma receptor,does not interact
same,Cmax/Dose,[2]; MMT 0.4 mg/kg Buccal + 3.3 mg/ml NaOH,12.9
same,Cmax/Dose,"[2]; MMT 0.4 mg/kg Buccal, Control (water)",6.7
same,AUC(0-inf),[2]; [10],184 ng·h/mL
same,Cmax,[2]; [10],54 ng/mL
same,AUC(0-inf),[2]; [11],125 ng·h/mL
same,AUC(0-t),[2]; [11],119 ng·h/mL
same,ED50 of inhibition of ex vivo [3H]MK-801 binding,NMDA receptors,1.8 ± 1.3 mg/kg
same,solubility,[3]; all physiological pHs,> 30 mg/mL
same,Biopharmaceutics Classification System (BCS) class,[3]; highly soluble/highly permeable,class I
same,"cue-induced fear conditioning, CS phase, vs vehicle-diphenhydramine 20 mg/kg",[4]; memantine 10 mg/kg IP + diphenhydramine 20 mg/kg,significantly increased cue-induced fear conditioning
same,post-CS freezing vs vehicle-diphenhydramine,[4]; memantine 20 mg/kg plus diphenhydramine,strong trend (p=0.052) toward a significant increase in post-CS freezing
same,density of H3-receptor binding sites increased by,H3-receptor,141±24%
same,ED50 of t-MeHA increase,[5]; acute administration,0.3 ± 0.1 mg/kg
same,increase of tele-methylhistamine (t-MeHA) levels in the brain,[5]; acute administration,60%
same,t-MeHA levels enhanced by,[5]; two days after 5 mg/kg twice daily for 5 days,50±7%
same,Effect on number of coughs evoked by bradykinin aerosols compared to control,"bradykinin induced cough; FIG. 4, p<0.01",significantly reduced the number of coughs evoked by bradykinin
same,"Cumulative coughs, 0.3M bradykinin challenge",bradykinin induced cough; MMT 3 mg/kg i.p. 1 hour pre-bradykinin challenge,20 ± 5
same,"Cumulative coughs, 0.3M bradykinin challenge",bradykinin induced cough; MMT 10 mg/kg i.p. 1 hour pre-bradykinin challenge,1.3±0.8
same,"Cumulative coughs, 0.3M bradykinin challenge","bradykinin induced cough; MMT 10 mg/kg i.p. 1 hour pre-bradykinin challenge, listed as MMT",1.3 ± 0.8
same,"cumulative number of coughs evoked by 0.1-3 mg/mL bradykinin, median","bradykinin induced cough; memantine 10 mg/kg, controls 16 coughs",0.0 coughs
same,plasma memantine concentrations at steady state,[6]; conventional memantine dosage forms,70 to 150 ng/mL
same,Total renal clearance,[6]; healthy volunteers,approximately 170 mL/min/1.70 m^2
same,bound to plasma proteins,[6]; in vivo,about 45%
same,mean volume of distribution,[6]; in vivo,about 10 L/kg
same,bioavailability,"[6]; oral, conventional memantine",> 100%
same,potency of antagonism,native NMDA receptors,micromolar potency
same,Cmax/Dose,[7]; [12],18.16
same,Cmax/Dose,[7]; [13],26.03
same,Cmax/Dose,[7]; [14],9.18
same,Cmax/Dose,[7]; Control,7.91
same,AUC(0-inf),[7]; [12],126 ng·h/mL
same,AUC(0-t),[7]; [12],113 ng·h/mL
same,Cmax,[7]; [12],77 ng/mL
same,Tmax,[7]; [12],0.2 h
same,half-life,[7]; [12],5.05 h
same,AUC(0-inf),[7]; [13],143 ng·h/mL
same,AUC(0-t),[7]; [13],134 ng·h/mL
same,Cmax,[7]; [13],126 ng/mL
same,Tmax,[7]; [13],0.15 h
same,half-life,[7]; [13],4.6 h
same,AUC(0-inf),[7]; [14],125 ng·h/mL
same,AUC(0-t),[7]; [14],103 ng·h/mL
same,Cmax,[7]; [14],43 ng/mL
same,Tmax,[7]; [14],0.25 h
same,half-life,[7]; [14],4.33 h
same,AUC(0-inf),[7]; Control,132 ng·h/mL
same,AUC(0-t),[7]; Control,120 ng·h/mL
same,Cmax,[7]; Control,34.5 ng/mL
same,Tmax,[7]; Control,0.75 h
same,half-life,[7]; Control,7.18 h
same,permeability in Caco-2 cells versus pH,Caco-2 cells,gradually increases with an increase in pH
same,Change of breathing frequency induced by bradykinin,[8],small increase in breathing frequency
same,ionization,[9],completely ionized
same,increase in permeability of memantine,porcine buccal mucosa; increase in pH from 5.5 to 9.0,over 100 fold
same,increase in permeability of memantine,porcine buccal mucosa; increase in pH from 8.0 to 9.0,about 3.8 fold
